Values after ≈ are worked out from the molar mass of the structure shown. Where a name gives a salt, the structure may show the parent alone. Read-outs that look alike come from different tables or passages of the source. One block for each compound: values may come before it.
Tests used:
[1] = Equilibrium solubility in aqueous solutions, shaking flask method for 24 hours; type: physicochemical; settings: for Solubility (mg/mL) at 37°C / Solubility (mg/mL) room temp / solubility at 24 h: 24 hours; for solubility at 24 h: thermodynamic from solid
Protocol: The solubility of prasugrel base and some of its pharmaceutically acceptable salts in different dissolution media (in mg/mL) at room temperature and 37°C is given in Table 2. The equilibrium solubility of prasugrel base and some of its salts were checked in aqueous solutions at room temperature and 37 °C with shaking flask method for 24 hours (Heidoplh Incubator 1000, Unimax 1010). In comparison with prasugrel base, all salts are better soluble in lower pH values. In higher pH values the solubility decreases and at pH 6.8 the compound is slightly soluble to practically insoluble. […]

[2] = physchem; type: physicochemical

Compound: CC(=O)Oc1cc2c(s1)CCN(C(C(=O)C1CC1)c1ccccc1F)C2 (stereo not drawn) [Prasugrel base, 2-acetoxy-5-([alpha]-cyclopropylcarbonyl-2-fluorobenzyl)-4,5,6,7-tetrahydrothieno[3,2-c]pyridine]
Solubility (mg/mL) at 37°C ([1]; AGJ (without pepsin) pH 1.2, 37°C): 3.23 mg/mL (≈ 8650 µM)
Solubility (mg/mL) room temp ([1]; AGJ (without pepsin) pH 1.2, room temperature): 1.54 mg/mL (≈ 4120 µM)
Solubility (mg/mL) at 37°C ([1]; Acetate Buffer solution pH 4.0, 37°C): 0.03 mg/mL (≈ 80.3 µM)
Solubility (mg/mL) room temp ([1]; Acetate Buffer solution pH 4.0, room temperature): 0.03 mg/mL (≈ 80.3 µM)
pKa [2]: 5.4

Solubility (mg/mL) at 37°C ([1]; AGJ (without pepsin) pH 1.2, 37°C, hydrochloride): 4.43 mg/mL
Solubility (mg/mL) room temp ([1]; AGJ (without pepsin) pH 1.2, room temperature, hydrochloride): 5.00 mg/mL
Solubility (mg/mL) at 37°C ([1]; Acetate Buffer solution pH 4.0, 37°C, hydrochloride): 0.08 mg/mL
Solubility (mg/mL) room temp ([1]; Acetate Buffer solution pH 4.0, room temperature, hydrochloride): 0.07 mg/mL
Compound: CC(=O)Oc1cc2c(s1)CCN(C(C(=O)C1CC1)c1ccccc1F)C2 (stereo not shown) [Prasugrel hydrochloride]

Solubility (mg/mL) at 37°C ([1]; AGJ (without pepsin) pH 1.2, 37°C, hydroiodide): 3.660 mg/mL
Solubility (mg/mL) room temp ([1]; AGJ (without pepsin) pH 1.2, room temperature, hydroiodide): 2.600 mg/mL
Solubility (mg/mL) at 37°C ([1]; Acetate Buffer solution pH 4.0, 37°C, hydroiodide): 0.166 mg/mL
Solubility (mg/mL) room temp ([1]; Acetate Buffer solution pH 4.0, room temperature, hydroiodide): 0.132 mg/mL
Solubility (mg/mL) at 37°C ([1]; Phosphate Buffer solution pH 6.8, 37°C, hydroiodide): 0.0018 mg/mL
Solubility (mg/mL) room temp ([1]; Phosphate Buffer solution pH 6.8, room temperature, hydroiodide): 0.00316 mg/mL
Compound: CC(=O)Oc1cc2c(s1)CCN(C(C(=O)C1CC1)c1ccccc1F)C2 (stereo not shown) [Prasugrel hydroiodide]
equilibrium solubility ([1]; compared with hydrochloride salt of prasugrel): comparable with solubility of hydrochloride salt of prasugrel

solubility at 24 h ([1]; AGJ (without pepsin) pH 1.2, 37 °C, pH 1.2, simulated gastric fluid, AGJ (without pepsin) pH 1.2, 37°C, read-out: Solubility (mg/mL) at 37°C): 4.1 mg/mL
Solubility (mg/mL) room temp ([1]; AGJ (without pepsin) pH 1.2, room temperature, hydrobromide): 3.924 mg/mL
Solubility (mg/mL) at 37°C ([1]; Acetate Buffer solution pH 4.0, 37°C, hydrobromide): 0.153 mg/mL
Solubility (mg/mL) room temp ([1]; Acetate Buffer solution pH 4.0, room temperature, hydrobromide): 0.138 mg/mL
Solubility (mg/mL) at 37°C ([1]; Phosphate Buffer solution pH 6.8, 37°C, hydrobromide): 0.009 mg/mL
solubility at 24 h ([1]; phosphate buffer solution pH 6.8, pH 6.8, aqueous buffer, Phosphate Buffer solution pH 6.8, room temperature, read-out: Solubility (mg/mL) room temp): 0.003 mg/mL
Compound: CC(=O)Oc1cc2c(s1)CCN(C(C(=O)C1CC1)c1ccccc1F)C2 (stereo not shown) [Prasugrel hydrobromide]

Source: patent EP2398468B1, “PHARMACEUTICAL COMPOSITIONS COMPRISING PRASUGREL BASE OR ITS PHARMACEUTICALLY ACCEPTABLE ACID ADDITION SALTS AND PROCESSES FOR THEIR PREPARATION” (KRKA, D.D., Novo Mesto, priority 2009, dated 2010)
